# Experimental data taken from patent US20210317111A1, “NOVEL MEDICAMENT FOR TREATING INFLAMMATORY BOWEL DISEASE” (OTSUKA PHARMACEUTICAL CO., LTD., priority 2018, published 2021).
# Tests used:
# [1] = tested on: activated T cell (CD25+ cell); test: T-cell activation (CD25+ cells) in anti-CD3/CD28/CD2 bead-stimulated PBMC; assay type: cell-based, human; conditions: both CD4-positive and CD8-positive T-cell
# Procedure: Peripheral blood (30 mL) derived from a healthy adult was layered on a lymphocyte tube Leucosep™ containing Lymphoprep (15 mL), and the tube was centrifuged at room temperature at 2000 rpm for 20 minutes. After the centrifugation, the upper 5 mL of the plasma was removed from the peripheral blood mononuclear cell (PBMC) layer with an aspirator, and the left solution containing the PBMC layer was collected into a new 50 mL tube. To the collected solution was added an equal amount of Hanks' balanced salt solution (HBSS) to dilute the cell suspension. The diluted solution was centrifuged at 4° C. at 1800 rpm for 5 minutes. After the centrifugation, the supernatant was discarded, the rest was suspended in 10 mL of AIM-V. The suspension was centrifuged at 4° C. at 1500 rpm for 5 minutes, and the supernatant was discarded. The same washing process was repeated one more time. After the centrifugation, the supernatant was discarded, and the obtained cell was suspended in 5% FBS-containing AIM-V to be used in the following tests.
# To 96-well round-bottom plate were added 100 μL of medium containing the compound, 100 μL (0.5×10^5 beads) of anti-CD3/CD28/CD2-loaded bead suspension (Miltenyi), and 100 μL (1×10^5 cells) of PBMC suspension. The mixture was incubated at 37° C. in 5% CO2 for 3 days.
# TNF-α production = test: inhibition of LPS-induced TNF-α production in human peripheral blood (ELISA); assay type: cell-based; conditions: 24 hours
# Procedure: The LPS solution which was adjusted to 2 μg/mL with RPMI 1640 medium was added to 48-well plate in the amount of 250 μL/well. The each diluted solution of each test compound and the diluted solution of the solvent control were added to 3 wells for each concentration in the amount of 50 μL/well, 4-fold diluted solution of human peripheral blood was added to each well (200 μL/well), and the wells were incubated at 37° C. in 5% CO2 for 24 hours. As LPS (−) control, RPMI 1640 medium without added LPS was prepared in the same manner. The final concentrations of each test sample were adjusted to 0, 1, 3, 10, 30, and 100 μM, and the final concentration of prednisolone was adjusted to 0.3 μM. 24 hours later from the incubation, each supernatant was collected and stored at −80° C. until the measurement of the TNF-α concentration.
# The TNF-α concentration was measured by ELISA with Human TNF-alpha Quantikine ELISA Kit (R & D Systems). Each sample was unfrozen at room temperature, and diluted with Calibrator Diluent RD6-35 (1×) of the kit by 10-fold. The 10-fold diluted supernatant and the TNF-α standard solution were added on TNF-α microplate, and reacted according to the operating manual of the kit. After the coloring, the absorbance at wave length of 450 nm was measured with a microplate reader (Multiskan FC; Thermo Fisher […]), and the calibration curve was prepared with an analysis software (Skanit Software 3.1.0.4 RE for Multiskan FC (ja)) to read the TNF-α concentration of each sample. Calibration curve used a 4-parameter logistic curve.
# The inhibition rates were presented as the mean±standard deviation using Microsoft Excel 2010. For each blood donor, the TNF-α production rate under each compound concentration was calculated with the TNF-α concentration in the supernatant of the solvent group as 100%.
# The results are averages of the measurements obtained from the human peripheral blood of three volunteers.
# DSS-induced colitis = DSS-induced colitis model, stool scores; assay type: in vivo, rat; conditions: for deaths: 8 animals per group
# Source text: A colitis model induced by dextran sulfate sodium (DSS) is widely used as an experimental ulcerative colitis model having similarities of human ulcerative colitis regarding suppression of weight gain, colitis symptoms such as bloody stools and diarrhea, and injury formation in the large intestine. The effect of the present compound on the ulcerative colitis model was examined, and it was compared with salazosulfapyridine (SASP) clinically used as a therapeutic agent for ulcerative colitis.
# Symptoms of colitis were induced by allowing rats to freely drink 3% dextran sulfate sodium (DSS) solution for 10 days. […] For the observation of stool symptoms, the degree of stool condition was scored as the score of stool firmness (Stool Consistency Score: 0, 1, 2, 3) and blood stool (Bloody Stool Score: 0, 1, 2, 3). The total of Stool Consistency Score and Bloody Stool Score was taken as the Total Stool Score. Each group was composed of 8 animals. Salazosulfapyridine (SASP), which is an already-existing drug for treating inflammatory bowel disease, the present compound or the vehicle were administrated for 10 days from the start date of 3% DSS freely drinking.
# TNBS-induced enteritis = TNBS-induced enteritis model; assay type: in vivo, rat
# Procedure: An enteritis animal model induced with 2,4,6-trinitrobenzenesulfonic acid (TNBS) is widely used as Crohn's disease model since the inflammatory finding is pathologically similar to that of human Crohn's disease. In addition, the enteritis model was used in the non-clinical study of mesalazine that is a medicament for treating Crohn's disease. Thus, this enteritis model was used as Crohn's disease model for evaluating the present compound.
# Rats were made to be fasted for 24 or 48 hours, and the body weight were measured. The rats were laparotomized under isoflurane anesthesia, and 50% ethanol (0.25 mL) containing 60 mg/mL 2,4,6-trinitrobenzenesulfonic acid (TNBS) was injected into the large intestine from the cecum side toward the anal side to induce the injury. Each group composed of 12 rats was set, and vehicle, the present compound, or salazosulfapyridine (SASP) which is an already-existing drug for treating inflammatory bowel disease were administered for 7 days from the first day after the injection of TNBS. On the 8th day, each rat was laparotomized under anesthesia and killed by exsanguination. The large intestine was removed from the anus to the cecum, the large intestine was longitudinally incised, and the incised large intestine was washed with a cold saline. The lesion area of the large intestine was photographed with a digital camera. The area of the lesion area in the photograph of the large intestine was measured using image analyzing program.
# Each compound was orally administered at a dose of 100 mg/kg twice a day from one day after inducing enteritis with TNBS. Each area of the lesion area on the 8th day was compared.
# [2] = 11th day, present compound 1, 3, 10 mg/kg (P<0.01) or SASP 100 mg/kg (P<0.05) orally twice a day, Dunnett's test
# [3] = present compound groups, orally twice a day
compound,measurement,setting,value
"Cc1c(-c2cnc(N)c(C#N)c2)c(F)cc2c(=O)c(C(=O)O)cn(C3CC3)c12 [the present compound, 7-(6-amino-5-cyanopyridin-3-yl)-1-cyclopropyl-6-fluoro-1,4-dihydro-8-methyl-4-oxo-3-quinoline-carboxylic acid]",inhibitory activity on T cell activation compared with prednisolone,[1]; 30 μM,higher inhibitory activity than prednisolone
same,rate of activated T cell,"[1]; 6 people's human PBMC, 3 days",decreased
same,inhibitory effect on TNF-α production at 100 μM,"TNF-α production; 100 μM, human peripheral blood",completely inhibited
same,inhibitory activity for TNF-α production over concentration range,"TNF-α production; 1, 3, 10, 30, 100 μM, human peripheral blood",dose-dependent manner
same,IC50,TNF-α production; human peripheral blood of three volunteers,6.25 µM
same,deaths,DSS-induced colitis; 1 mg/kg orally twice a day,One
same,deaths,DSS-induced colitis; 3 mg/kg orally twice a day,no death
same,effect on blood stool score at 10 mg/kg,DSS-induced colitis; 10 mg/kg orally twice a day,remarkable deterioration suppression effect
same,deaths,DSS-induced colitis; 10 mg/kg orally twice a day,no death
same,bloody stool score vs vehicle control,"DSS-induced colitis; 11th day, present compound 1 mg/kg (P<0.05), 3, 10 mg/kg (P<0.01) or SASP 100 mg/kg orally twice a day, Dunnett's test",Significant differences
same,stool firmness (Stool Consistency Score) vs vehicle control,DSS-induced colitis; [2],Significant differences
same,total stool score vs vehicle control,DSS-induced colitis; [2],Significant differences
same,day from which deterioration suppression effect on blood stool score was observed,DSS-induced colitis; [3],from the 6th day
same,day from which deterioration suppression effect on stool firmness score was observed,DSS-induced colitis; [3],from the 9th day
same,area of the lesion area of the large intestine,"TNBS-induced enteritis; 100 mg/kg orally twice a day for 7 days, 8th day, vs vehicle control, P<0.01 t-test",significantly inhibited the area of lesion
same,number of death during the treatment,"TNBS-induced enteritis; 100 mg/kg orally twice a day, 12 rats per group",decreased the number of death
